Laboratory results published in patent publication US20110280930A1, “PRODUCTS AND METHODS FOR STIMULATING AN IMMUNE RESPONSE” (priority 2008, published 2011).

Tested on: DN32.D3 cells
Experiment: αGalCer presentation by B cells to iNKT cells (IL-2 production)
Assay type: cell-based, mouse
Conditions: MD4 B cells pulsed with particles or soluble αGalCer, then cocultured with DN32.D3 cells; IL-2 by ELISA
Description: Splenic B cells were enriched by negative selection to >99% purity using B cell purification kit (Miltenyi Biotec). For analysis of αGalCer presentation, B cells were incubated overnight with particles containing αGalCer and/or HEL, extensively washed and cultured at 5×10^4 cells per well with the same number of DN32.D3 cells. NKT activation was assayed by measuring IL-2 production in the culture supernatant. For blocking experiments MD4 B cells were incubated with an antiCDld blocking antibody (25 μg/ml; clone 1B1) for 2 h before incubation with iNKT cells.
Concentration of IL-2 in the supernatant of the cultures was determined by ELISA using the JES6-1A12 capture antibody (BD Pharmingen). Biotinylated JSE6-5H4 (BD Pharmingen) was used for detection. Specific antibody in mice sera were measured using plates coated with antigen (HEL, OVA or CGG) and serial dilutions of sera. Bound antibodies were detected with biotin-labelled goat anti-mouse IgM, IgG, IgG1, IgG2b, IgG2c or IgG3 (BD Pharmingen).
We aspired to investigate the impact of targeting iNKT cell help to antigen specific B cells during the development of an immune response. […] Alexa-488-labeled-αGalCer was used to quantify the amount of αGalCer loaded on the beads, and we found this to be 150 ng per μl of beads (10^8 beads/μl). […]

For `CCCCCCCCCCCCCCCCCCCCCCCCCC(=O)N[C@@H](CO[C@H]1O[C@H](CO)[C@H](O)[C@H](O)[C@H]1O)[C@H](O)[C@H](O)CCCCCCCCCCCCCC` [soluble αGalCer, α-galactosylceramide], the “iNKT cell activation (IL-2 production)” value was “efficiently presented by B cells and induced IL-2 production”.
